According to patent publication US8952024B2, “Herbicidal pyrimidone derivatives” (E I du Pont de Nemours and Company, priority 2009, dated 2015):

What was measured:
Assay in all cases: Test D pre-/postemergence plant response
Format in all cases: in vivo
[1] = test system: Russian thistle (Salsola kali)
Summary of the method: (§1)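 Visual 0–100 scoring (100 = complete control) versus untreated controls after 14–21 greenhouse days. Compounds, formulated in surfactant-containing non-phytotoxic solvent, were applied preemergence to seeded loam/sand and postemergence to 2–18 cm plants (1–4 leaves).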

[2] = test system: Surinam grass (Brachiaria decumbens)
Summary of the method: as §1

[3] = test system: barnyardgrass (Echinochloa crus-galli)
Summary of the method: as §1

[4] = test system: bermudagrass (Cynodon dactylon)
Summary of the method: as §1

[5] = test system: bluegrass (annual bluegrass, Poa annua)
Summary of the method: as §1

[6] = test system: chickweed (common chickweed, Stellaria media); conditions: Postemergence
Summary of the method: as §1

[7] = test system: dallisgrass (Paspalum dilatatum)
Summary of the method: as §1

[8] = test system: dayflower (Virginia (VA) dayflower, Commelina virginica)
Summary of the method: as §1

[9] = test system: goosegrass (Eleusine indica)
Summary of the method: as §1

[10] = test system: green foxtail (Setaria viridis)
Summary of the method: as §1

[11] = test system: itchgrass (Rottboellia cochinchinensis)
Summary of the method: as §1

[12] = test system: johnsongrass (Sorghum halepense)
Summary of the method: as §1

kochia (Kochia scoparia) = test system: kochia (Kochia scoparia)
Summary of the method: as §1

[13] = test system: mallow (common mallow, Malva sylvestris)
Summary of the method: as §1

[14] = test system: purslane (common purslane, Portulaca oleracea)
Summary of the method: as §1

[15] = test system: signalgrass (broadleaf signalgrass, Brachiaria platyphylla)
Summary of the method: as §1

[16] = test system: sowthistle (common sowthistle, Sonchus oleraceous)
Summary of the method: as §1

[17] = test system: spanishneedles (Bidens bipinnata)
Summary of the method: as §1

[18] = Postemergence, 125 g ai/ha, scale 0 to 100 (0 no effect, 100 complete control)
[19] = Preemergence, 31 g ai/ha, scale 0 to 100 (0 no effect, 100 complete control)
[20] = Preemergence, 125 g ai/ha, scale 0 to 100
[21] = Postemergence, 31 g ai/ha, scale 0 to 100
[22] = Postemergence, 62 g ai/ha, scale 0 to 100 (0 no effect, 100 complete control)
[23] = Postemergence, 16 g ai/ha, scale 0 to 100
[24] = Preemergence, 16 g ai/ha, scale 0 to 100, 0 no effect, 100 complete control
[25] = Postemergence, 31 g ai/ha, scale 0 to 100 (0 no effect, 100 complete control)
[26] = Preemergence, 62 g ai/ha, scale 0 to 100

O=C1CCCC(O)=C1C(=O)c1cnc(-c2ccccc2)n(CC2CCCO2)c1=O (stereo not drawn) [Compound 59]
100: Plant response rating, Russian Thistle [1, 20] | Plant response rating, Surinam Grass [2, 20] | Plant response rating, Purslane [14, 19] | Plant response rating, Purslane [14, 26] | Plant response rating, Purslane [14, 20] | Plant response rating, Sowthistle [16, 21] | Plant response rating, Sowthistle [16, 22] | Plant response rating, Sowthistle [16, 18] | Plant response rating, Sowthistle [16, 20]
25: Plant response rating, Dayflower, VA [8, 23]
70: Plant response rating, Bermudagrass [4, 22] | Plant response rating, Chickweed ([6]; 31 g ai/ha, scale 0 to 100) | Plant response rating, Chickweed ([6]; 62 g ai/ha, scale 0 to 100 (0 no effect, 100 complete control)) | Plant response rating, Sowthistle [16, 23] | Plant response rating, Spanishneedles [17, 22] | Plant response rating, Spanishneedles [17, 18]
20: Plant response rating, Dallisgrass [7, 22] | Plant response rating, Goosegrass [9, 21] | Plant response rating, Goosegrass [9, 23] | Plant response rating, Goosegrass [9, 26] | Plant response rating, Foxtail, Green [10, 22] | Plant response rating, Itchgrass [11, 20] | Plant response rating, Kochia (kochia (Kochia scoparia); [22]) | Plant response rating, Signalgrass [15, 18]
35: Plant response rating, Surinam Grass [2, 21] | Plant response rating, Bermudagrass [4, 23] | Plant response rating, Dayflower, VA [8, 26] | Plant response rating, Dayflower, VA [8, 20] | Plant response rating, Foxtail, Green [10, 18] | Plant response rating, Johnsongrass [12, 21] | Plant response rating, Johnsongrass [12, 20] | Plant response rating, Purslane [14, 21] | Plant response rating, Purslane [14, 22] | Plant response rating, Purslane [14, 23]
0: Plant response rating, Barnyardgrass [3, 24] | Plant response rating, Barnyardgrass [3, 19] | Plant response rating, Barnyardgrass [3, 26] | Plant response rating, Bermudagrass [4, 24] | Plant response rating, Bermudagrass [4, 19] | Plant response rating, Bluegrass [5, 25] | Plant response rating, Bluegrass [5, 22] | Plant response rating, Bluegrass [5, 23] | Plant response rating, Bluegrass [5, 24] | Plant response rating, Bluegrass [5, 19] | Plant response rating, Dallisgrass [7, 24] | Plant response rating, Dallisgrass [7, 19] | Plant response rating, Dayflower, VA [8, 19] | Plant response rating, Goosegrass [9, 24] | Plant response rating, Foxtail, Green [10, 23] | Plant response rating, Foxtail, Green [10, 24] | Plant response rating, Foxtail, Green [10, 19] | Plant response rating, Foxtail, Green [10, 26] | Plant response rating, Foxtail, Green [10, 20] | Plant response rating, Itchgrass [11, 23] | Plant response rating, Itchgrass [11, 24] | Plant response rating, Itchgrass [11, 19] | Plant response rating, Itchgrass [11, 26] | Plant response rating, Johnsongrass [12, 24] | Plant response rating, Johnsongrass [12, 19] | Plant response rating, Kochia (kochia (Kochia scoparia); [24]) | Plant response rating, Kochia (kochia (Kochia scoparia); [19]) | Plant response rating, Kochia (kochia (Kochia scoparia); [26]) | Plant response rating, Kochia (kochia (Kochia scoparia); [20]) | Plant response rating, Mallow [13, 23] | Plant response rating, Mallow [13, 24] | Plant response rating, Signalgrass [15, 24] | Plant response rating, Signalgrass [15, 19] | Plant response rating, Sowthistle [16, 24] | Plant response rating, Spanishneedles [17, 24] | Plant response rating, Spanishneedles [17, 19]
40: Plant response rating, Barnyardgrass [3, 23] | Plant response rating, Bermudagrass [4, 25] | Plant response rating, Bermudagrass [4, 26] | Plant response rating, Johnsongrass [12, 22] | Plant response rating, Mallow [13, 18]
5: Plant response rating, Surinam Grass [2, 24] | Plant response rating, Bluegrass [5, 18] | Plant response rating, Goosegrass [9, 19] | Plant response rating, Foxtail, Green [10, 21] | Plant response rating, Kochia (kochia (Kochia scoparia); [21]) | Plant response rating, Kochia (kochia (Kochia scoparia); [23]) | Plant response rating, Mallow [13, 21] | Plant response rating, Mallow [13, 22] | Plant response rating, Signalgrass [15, 21] | Plant response rating, Signalgrass [15, 23] | Plant response rating, Signalgrass [15, 20]
60: Plant response rating, Surinam Grass [2, 18] | Plant response rating, Barnyardgrass [3, 25] | Plant response rating, Barnyardgrass [3, 22] | Plant response rating, Dayflower, VA [8, 22] | Plant response rating, Johnsongrass [12, 18]
75: Plant response rating, Barnyardgrass [3, 18] | Plant response rating, Dallisgrass [7, 20] | Plant response rating, Itchgrass [11, 18]
30: Plant response rating, Surinam Grass [2, 23] | Plant response rating, Bluegrass [5, 20] | Plant response rating, Johnsongrass [12, 23] | Plant response rating, Spanishneedles [17, 23]
10: Plant response rating, Barnyardgrass [3, 20] | Plant response rating, Dallisgrass [7, 21] | Plant response rating, Dallisgrass [7, 23] | Plant response rating, Johnsongrass [12, 26] | Plant response rating, Signalgrass [15, 22]
50: Plant response rating, Surinam Grass [2, 22] | Plant response rating, Dallisgrass [7, 18] | Plant response rating, Goosegrass [9, 22] | Plant response rating, Kochia (kochia (Kochia scoparia); [18]) | Plant response rating, Purslane [14, 18] | Plant response rating, Spanishneedles [17, 21]
90: Plant response rating, Russian Thistle [1, 19] | Plant response rating, Surinam Grass [2, 19] | Plant response rating, Bermudagrass [4, 20] | Plant response rating, Spanishneedles [17, 20]
65: Plant response rating, Russian Thistle [1, 18] | Plant response rating, Dallisgrass [7, 26] | Plant response rating, Goosegrass [9, 18] | Plant response rating, Mallow [13, 19] | Plant response rating, Mallow [13, 26] | Plant response rating, Mallow [13, 20] | Plant response rating, Purslane [14, 24]
80: Plant response rating, Bermudagrass [4, 18] | Plant response rating, Goosegrass [9, 20]
95: Plant response rating, Sowthistle [16, 19]
15: Plant response rating, Bluegrass [5, 26] | Plant response rating, Itchgrass [11, 21] | Plant response rating, Itchgrass [11, 22]
